Experimental data reported in PubChem BioAssay (NCI).
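How tested: cells in 96-well plates exposed to compound for 48 hours at five concentrations. TGI denotes the concentration required for complete inhibition of growth.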

Legend:
Assay in all cases: NCI-60 cell line screen, 48 h
[1] = test system: CAKI-1 renal
[2] = test system: OVCAR-4 ovarian
[3] = test system: HCT-116 colon
[4] = test system: 786-0 renal
[5] = test system: SF-295 CNS
[6] = test system: SK-MEL-2 melanoma
[7] = test system: BT-549 breast
[8] = test system: MDA-MB-231 breast
[9] = test system: A549 NSCLC
[10] = test system: KM12 colon
[11] = test system: SK-MEL-5 melanoma
[12] = test system: DU-145 prostate
[13] = test system: UO-31 renal
[14] = test system: SK-OV-3 ovarian
[15] = test system: NCI/ADR-RES ovarian
[16] = test system: SNB-19 CNS
[17] = test system: SNB-75 CNS
[18] = test system: SK-MEL-28 melanoma
[19] = test system: HOP-62 NSCLC

SMILES	TGI [1]	TGI [2]	TGI [3]	TGI [4]	TGI [5]	TGI [6]	TGI [7]	TGI [8]	TGI [9]	TGI [10]	TGI [11]	TGI [12]	TGI [13]	TGI [14]	TGI [15]	TGI [16]	TGI [17]	TGI [18]	TGI [19]
COC(=O)[C@@H]1[C@H](OC(C)=O)CCC2[C@@]3(C[C@@H](c4ccoc4)O[C@@H]3OC)[C@H](C)CC[C@]21C(=O)OC (stereo not given in full)	> 25 µM	> 25 µM	> 25 µM	> 25 µM	> 25 µM	> 25 µM	> 25 µM	> 25 µM	> 25 µM	> 25 µM	> 25 µM	> 25 µM	> 25 µM	> 25 µM	> 25 µM	> 25 µM	> 25 µM	–	–
CCCCn1c(N)c(-c2nc3ccccc3o2)sc1=S	41 µM	19.9 µM	24.6 µM	33 µM	28.9 µM	37.7 µM	75.2 µM	34.3 µM	29.8 µM	> 100 µM	34.9 µM	35.9 µM	39 µM	40.8 µM	46.8 µM	> 100 µM	–	52.7 µM	39.9 µM
CCN(CC)CC1CCCCN1CC(=O)N1c2ccccc2C(=O)Nc2cccnc21 (stereo not given)	> 100 µM	> 100 µM	37.2 µM	> 100 µM	> 100 µM	> 100 µM	–	75.8 µM	35.4 µM	> 100 µM	> 100 µM	> 100 µM	4.96 µM	> 100 µM	67.5 µM	> 100 µM	> 100 µM	> 100 µM	> 100 µM
Cc1cc(S(=O)(=O)Nc2nc3ccccc3nc2-c2cccc([N+](=O)[O-])c2)c(S)cc1Cl	39.4 µM	66.8 µM	35.2 µM	45.6 µM	59.8 µM	42.2 µM	72.8 µM	> 100 µM	38 µM	31.3 µM	28.4 µM	36.8 µM	46.1 µM	34 µM	48.3 µM	39.9 µM	–	32.9 µM	39.2 µM
C=C(Br)CNC(=O)Nc1ccc(Cl)c(Cl)c1	54.2 µM	> 100 µM	32.7 µM	36 µM	67.2 µM	32.8 µM	–	32.9 µM	66 µM	34.4 µM	27.1 µM	89.5 µM	24.8 µM	77 µM	43.6 µM	73.5 µM	51.5 µM	> 100 µM	48.1 µM
CS(=O)(=O)OCC1CN(S(C)(=O)=O)c2cc(O)ccc21 (stereo not given)	14.2 µM	7.65 µM	12.8 µM	12 µM	14.6 µM	6.88 µM	8.85 µM	6.8 µM	21.1 µM	13 µM	3.52 µM	10 µM	11.1 µM	–	19.9 µM	–	7.43 µM	11.6 µM	7.01 µM
CC(C)(C)OC(=O)NC(Cc1ccccc1)OCc1ccccc1 (stereo not given)	37.8 µM	–	31.8 µM	31 µM	31.2 µM	74.7 µM	55.2 µM	30.2 µM	32.8 µM	37.4 µM	31 µM	39.6 µM	35.6 µM	31.4 µM	70.7 µM	37.7 µM	25.4 µM	33.1 µM	37.8 µM
O=C(O)C12C3CCC(CC3)C1(C(=O)O)C1CCC2C1 (stereo not given)	> 100 µM	–	> 100 µM	> 100 µM	> 100 µM	> 100 µM	> 100 µM	> 100 µM	> 100 µM	> 100 µM	> 100 µM	> 100 µM	> 100 µM	> 100 µM	> 100 µM	> 100 µM	> 100 µM	> 100 µM	> 100 µM
CO/C(=N\N=C\c1ccc(OC)c(OC)c1)c1ccncc1	> 10 µM	> 10 µM	–	> 10 µM	–	–	> 10 µM	> 10 µM	> 10 µM	> 10 µM	> 10 µM	> 10 µM	> 10 µM	> 10 µM	> 10 µM	–	> 10 µM	–	> 10 µM
CC1=NC(=Cc2cccc(Cl)c2)C(=O)N1n1c(-c2ccccc2)nc2ccccc2c1=O	87.6 µM	–	> 100 µM	> 100 µM	> 100 µM	–	> 100 µM	> 100 µM	> 100 µM	> 100 µM	> 100 µM	> 100 µM	> 100 µM	> 100 µM	–	> 100 µM	> 100 µM	–	55.2 µM
COc1cc2c(c(OC)c1)/C(=C/Sc1ccccc1)C(=O)N(C(C)(C)C)C2	> 100 µM	> 100 µM	40.2 µM	> 100 µM	75.5 µM	42.5 µM	83 µM	64.4 µM	–	66.1 µM	36.2 µM	> 100 µM	–	76.9 µM	56.7 µM	–	–	> 100 µM	83.8 µM
CC1(C)C=Cc2c(cc(O)c3c(=O)c4cc(Cl)ccc4[nH]c23)O1	> 10 µM	> 10 µM	> 10 µM	> 10 µM	8.25 µM	9.75 µM	8.06 µM	> 10 µM	> 10 µM	8.75 µM	6.33 µM	–	5.91 µM	> 10 µM	5.97 µM	6.4 µM	> 10 µM	> 10 µM	> 10 µM
COc1ccc(CC2(O)C3CC4CCC2C4C3)cc1 (stereo not given)	> 100 µM	> 100 µM	–	> 100 µM	> 100 µM	> 100 µM	> 100 µM	–	> 100 µM	> 100 µM	> 100 µM	–	> 100 µM	> 100 µM	> 100 µM	> 100 µM	> 100 µM	> 100 µM	> 100 µM
